Earlier results as cited in patent publication US20200038341A1, “METHODS AND COMPOSITIONS FOR TREATING JOINT DISEASE” (Script Essentials, LLC, priority 2015, published 2020).

Settings: male and female participants over 50 years old, before and after the intervention

CS(C)(=O)=O [MSM, Methylsulfonylmethane]
joint function, symptoms of joint degeneration and activities of daily living: improve joint function, relieve symptoms of joint degeneration and improve activities of daily living
